Data published in article PMC7961786, “Magic Peptide: Unique Properties of the LRR11 Peptide in the Activation of Leukotriene Synthesis in Human Neutrophils” (International Journal of Molecular Sciences, 2021).
Entries after “also recorded” stand apart in the source; their conditions may differ.

Legend:
[1] = test system: human neutrophils (PMNLs); experiment: Binding and uptake of FAM-labeled ODNs by neutrophils (flow cytometry); type: cell-based; conditions: 1 µM LRR11, 0.15 µM FPS-ZM1; n = 3; Figure 7
Method: Figure 6 The LRR11 peptide affects the binding and uptake of ODNs by neutrophilic granulocytes. PMNLs (1 × 10^6/mL) in HBSS/HEPES were incubated for 20 min at 37 °C in 5% CO2 with 1 µM FAM-labeled ODN, supplemented or not with 1 µM LRR11 peptide. Both the total ODN accumulation (red) and its intracellular constituent (black) were analyzed by flow cytometry. Surface fluorescence was quenched by trypan blue (TB) solution. Values represent the means ± SEM of FAM fluorescence intensities (RFU, relative fluorescence units) (n = 8). ** p < 0.01; *** p < 0.005, **** p < 0.001 for specified data pairs, as indicated by two-way ANOVA followed by Tukey’s multiple comparison test. Mean fluorescence intensities of unstained PMNLs were 62 ± 12 and 39 ± 5.6 without or after TB quenching, respectively.
Figure 7 RAGE antagonist effect on oligonucleotide penetration into neutrophil cells. […] Both total oligonucleotide accumulation (A) and its intracellular constituent (B) were analyzed by flow cytometry. The surface fluorescence was quenched by trypan blue solution. Values represent the means ± SEM of FAM fluorescence intensities (RFU) (n = 3). * p < 0.05; […]; *** p < 0.005 for the pair of data specified, as indicated by two-way ANOVA followed by Tukey’s multiple comparison test. Fluorescence intensities of unstained controls were 62 ± 14 and 49 ± 6 without, or after TB quenching, respectively. […]

[2] = test system: 5′-biotinylated G-rich ODN; experiment: TSM acoustic biosensor, peptide binding to immobilized G-rich ODN; conditions: LRR11 1 to 100 nM, Hanks buffer
From the text: (§1) To characterize the interaction of the studied synthetic ODNs with the LRR11 peptide, we applied the thickness shear mode (TSM) acoustic biosensor method, which is based on the investigation of ultrasonic waves in piezoelectric materials such as AT-cut quartz. This approach involved immobilizing a 5′-biotinylated ODN on the surface of TSM transducer covered by NeutrAvidin and then adding the LRR11 peptide. An unrelated peptide (URP) with a random primary structure ([…]) was used as a negative control. The measurement procedure was divided into several steps, in which each immobilization stage was followed by washing with an appropriate buffer solution; when peptide solutions at different concentrations (from 1 to 100 nM) were added to the surface-modified TSM transducer, a wash with Hanks buffer was used before increasing the peptide concentration.
(§2) Eight MHz AT-cut piezoelectric quartz crystal transducer was obtained from CH Instruments, Austin, TX, USA. The transducer was covered on both sides with thin layers of gold that served as electrodes (working area 0.2 cm^2). Prior ODNs immobilization, the crystal was carefully cleaned with basic Piranha solution (29% NH3, 30% H2O and H2O2 with volumetric 1:5:1 ratio, respectively) for 25 min. After the thorough cleaning, the crystal was positioned between two silicon O-rings in a flow-through cell. […]

NeutrAvidin = experiment: TSM acoustic biosensor, unspecific binding to NeutrAvidin in the absence of ODNs
From the text: as §1, §2

With “QLRKLNLSFNYQKRVSFAHLSLAPSFGSLV [LRR11, 30 amino acid peptide from leucine-rich repeat of TLR9]” the “effect of LRR11 on FPS-ZM1 inhibition of ODN internalization” value [1] was “overcomes the inhibitory effect of FPS-ZM1; also recorded: the maximum ODN delivery into cells is observed in the presence of LRR11 and a RAGE antagonist”, the “interaction with G-rich ODN” value [2] was “does not interact with the LRR11 peptide at any concentration; also recorded: no significant change of resonant frequency was observed” and the “unspecific binding to NeutrAvidin” value (NeutrAvidin) was “no unspecific biding”.
